# From publication PMC10565663, “^177Lu-labeled PSMA targeting therapeutic with optimized linker for treatment of disseminated prostate cancer; evaluation of biodistribution and dosimetry” (Frontiers in Oncology, 2023)
# Several values for one entry are separate records, joined by “and”; a condition that tells them apart may be missing. Identical values can stand only once.
# Experiments:
# [1] = biological target: T1, PSMA-expressing PC3-pip cells (Homo sapiens, UniProt Q04609); test: In vitro binding specificity test (PSMA saturation with unlabeled compound); conditions: 1 nM radiolabeled compound, 100-fold molar excess unlabeled, 1 h 37°C
# T1 construct: expressed in transfected cells; host or cells: PC3-pip (PSMA-transfected PC-3 human prostate cancer cells), provided by Prof; M. Pomper, Johns Hopkins University
# T1 sequence (Q04609 whole entry): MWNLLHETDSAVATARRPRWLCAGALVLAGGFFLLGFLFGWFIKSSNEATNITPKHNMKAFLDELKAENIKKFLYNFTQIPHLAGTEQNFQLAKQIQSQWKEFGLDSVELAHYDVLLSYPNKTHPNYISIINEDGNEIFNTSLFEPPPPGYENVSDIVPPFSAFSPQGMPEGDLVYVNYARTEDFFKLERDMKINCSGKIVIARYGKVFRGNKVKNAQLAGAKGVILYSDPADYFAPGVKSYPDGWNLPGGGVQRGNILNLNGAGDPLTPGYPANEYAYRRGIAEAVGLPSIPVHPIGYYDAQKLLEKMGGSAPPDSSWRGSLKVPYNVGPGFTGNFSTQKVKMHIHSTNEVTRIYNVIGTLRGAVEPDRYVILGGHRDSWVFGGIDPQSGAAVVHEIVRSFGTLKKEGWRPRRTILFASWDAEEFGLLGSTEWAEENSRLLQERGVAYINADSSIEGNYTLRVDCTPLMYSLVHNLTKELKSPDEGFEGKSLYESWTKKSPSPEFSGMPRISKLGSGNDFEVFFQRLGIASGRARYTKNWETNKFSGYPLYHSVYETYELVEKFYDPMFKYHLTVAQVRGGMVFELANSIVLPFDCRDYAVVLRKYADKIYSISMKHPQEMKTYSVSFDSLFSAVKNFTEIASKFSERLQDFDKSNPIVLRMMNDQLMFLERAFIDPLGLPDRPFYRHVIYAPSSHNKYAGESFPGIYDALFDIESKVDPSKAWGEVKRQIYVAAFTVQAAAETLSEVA
# Protocol: The human prostate cancer cell line PC-3 was purchased from the American Type Culture Collection (ATCC; LGC Promochem, Borås, Sweden). The cells were cultured in Roswell Park Memorial Institute (RPMI) 1640 medium supplemented with 10% fetal bovine serum (FBS), 2 mM L-glutamine, penicillin 100 IU/mL and 100 µg/mL streptomycin at 37°C and 5% CO2 atmosphere. The PSMA-transfected and overexpressing variant of PC3 cell line, PC3-pip, was provided by Prof. M. Pomper, Department of Radiology, the Johns Hopkins University, Baltimore, MD, US. PC3-pip cells were cultured in two types of RPMI media. The first one contained 20% fetal bovine serum, 1% of L-glutamine (5 mL) and 1% of PEST (penicillin and streptomycin 5 mL). The second one contained 20% fetal bovine serum, 1% of L-glutamine (5 mL) and 1% of PEST (penicillin and streptomycin 5 mL) and 10 μg/mL of pyramycin. The second media is used every second passage to maintain clone selection. All in vitro experiments were performed in triplicates. For a typical experiment, cells were seeded one day before the experiment in Petri dishes (35 mm) in the amount of 1×10^6 cell/dish.
# […] specificity was tested using a saturation method. Before the experiment, cells were washed with PBS solution. […] Cell-associated activity was measured using gamma-counter and presented as the percentage of added activity.
# [2] = tested on: PC3-pip xenografts; test: microSPECT/CT imaging of mice bearing PC3-pip xenografts; format: in vivo, Balb/c nu/nu mice; conditions: 3 h pi, 80 pmol/mouse
# Protocol: To confirm the biodistribution data, imaging of mice bearing PC3-pip xenografts was performed. The mice were injected with [^177Lu]Lu-BQ7876 (900 kBq/mouse, 80 pmol/mouse) or [^177Lu]Lu-PSMA-617 (1200 kBq/mouse, 80 pmol/mouse). Imaging was performed at 3 h pi using nanoScan SPECT/CT (Mediso Medical Imaging Systems, Hungary) according to the protocol describe earlier ([25]).
# [3] = tested on: PC3-pip xenografts; test: Biodistribution in mice bearing PSMA-positive PC3-pip xenografts; format: in vivo, Balb/c nu/nu mice; conditions: 3 h p.i.; PC3-pip xenograft mice; n=4
# Protocol: To prepare xenografts, PC3-pip and PC3 (PSMA-negative control) cells (10^7 cells in 100 μL of media) were subcutaneously injected in the hind legs of female Balb/c nu/nu mice. At the time of the experiment, the average mouse weight was 18 ± 2 g. The average tumor weight was 0.2 ± 0.1 g.
# Biodistribution of [^177Lu]Lu-BQ7876 was determined at 1, 3, 24, 48 and 130 hours p.i. Mice were injected with [^177Lu]Lu-BQ7876 (280 kBq/mouse). The amount of substance was adjusted to 80 pmol/mouse using unlabeled substance. A group of four animals per data point was used. The labeled peptide was injected into the tail vein. Mice were anaesthetized by a lethal intraperitoneal injection of ketamine and xylazine mixture solution (the dose of ketamine was 250 mg/kg and the dose of xylazine was 25 mg/kg) and sacrificed. Mice were exsanguinated by heart puncture using a heparinized syringe under anaesthesia. Organs and tissues were excised and weighed, and the activity of each organ was measured. The percentage of injected dose per gram of sample (%ID/g) was calculated. Activity in the rest of the gastrointestinal tract was measured to estimate hepatobiliary excretion. The rest of the body was also collected and its activity was measured. […]
# [4] = parameters: method as in Kuo et al. 2018; conditions: humans; extrapolated from mouse biodistribution; ref Kuo et al. 2018; cited from earlier work
# [5] = biological target: T2, PSMA-expressing PC-3pip prostate cancer cells (Homo sapiens, UniProt Q04609); test: Half-maximal inhibitory concentration: inhibition of [^111In]In-PSMA-617 binding; conditions: vs [^111In]In-PSMA-617 (1 nM); PC3-pip cells; 4°C, 4 hours
# T2 construct: expressed in transfected cells; host or cells: PC3-pip (PSMA-transfected PC-3 human prostate cancer cells), provided by Prof; M. Pomper, Johns Hopkins University
# T2 sequence (Q04609 whole entry): as above
# Protocol: For the determination of a half-maximal inhibitory concentration (IC50), PSMA-617 was labeled with indium-111. For this purpose, 2 nmol PSMA-617 were dissolved in 40 µL 0.2 M ammonium acetate, pH 5.5, and 12 µL (10 MBq) of [^111In]InCl3 solution in 0.01 M HCl was added. The mixture was vortexed and incubated at 85 °C for 30 min. The yield was determined using iTLC eluted with 0.2 M citric acid, pH 2.0. Since the radiochemical yield was over 98%, [^111In]In-PSMA-617 was used in further experiments without purification.
# For determination of IC50, BQ7876 and PSMA-617 were loaded with non-radioactive Lu of natural isotopic composition (^natLu) by incubation with a three-fold molar excess of ^natLuCl3 at 85 °C for 30 min in 0.2 M ammonium acetate, pH 5.5. Cells were washed with a PBS solution and incubated at 4°C for 4 hours with [^111In]In-PSMA-617 (1 nM) in the presence of increasing concentrations (range 0 to 2 μM) of competitors, ^natLu-BQ7876 or ^natLu-PSMA-617. Thereafter, cells were detached, collected, and cell-associated activity was measured using gamma-counter. The half-maximal inhibitory concentration was calculated using GraphPad software (version 9.3.1 for Windows, GraphPad Software, LLC. CA, USA).
# [6] = tested on: PC3-pip cells; test: Cellular processing and internalization (acid wash method); format: cell-based, human; conditions: 2 nM, after 24 h of continuous incubation at 37°C
# Protocol: Internalization of radiolabeled PSMA binders was evaluated using an acid wash method ([21]). PC3-pip cells were incubated with 2 nM of [^177Lu]Lu-BQ7876 or [^177Lu]Lu-PSMA-617 in RPMI medium at 37°C (5% of CO2). At predetermined time points (1, 2, 6 and 24 h), cells were treated with 0.5 mL of 4 M urea solution in a 0.2 M glycine buffer, pH 2.5, for 5 minutes on ice. After that, the acidic supernatant was collected and this fraction was considered to be a membrane-bound activity. To lyse the cells, 0.5 mL of 1 M sodium hydroxide solution was added and incubated at 37°C for at least 20 min. Alkaline-containing solution was collected, and the basic fraction was considered to be an internalized activity. Samples were measured using gamma-counter.
structure (smiles),measurement,setting,value
O=C([O-])CN1CCN(CC(=O)[O-])CCN(CC(=O)NC[C@H]2CC[C@H](C(=O)N[C@@H](Cc3ccc4ccccc4c3)C(=O)NCCCC[C@H](NC(=O)N[C@@H](CCC(=O)O)C(=O)O)C(=O)O)CC2)CCN(CC(=O)[O-])CC1.[111In+3] [[^111In]In-PSMA-617],Binding of labeled compound to cells after saturation of PSMA with large excess of unlabeled compound,[1],highly significant (p< 5 x 10^-6) reduction of binding
O=C([O-])CN1CCN(CC(=O)[O-])CCN(CC(=O)NC[C@H]2CC[C@H](C(=O)N[C@@H](Cc3ccc4ccccc4c3)C(=O)NCCCC[C@H](NC(=O)N[C@@H](CCC(=O)O)C(=O)O)C(=O)O)CC2)CCN(CC(=O)[O-])CC1.[177Lu+3] [[^177Lu]Lu-PSMA-617],Activity accumulation in microSPECT/CT imaging,[2],accumulated avidly in tumors
same,Binding of labeled compound to cells after saturation of PSMA with large excess of unlabeled compound,[1],highly significant (p< 5 x 10^-6) reduction of binding
same,Uptake in blood,[3],0.06±0.02 %IA/g
same,Uptake in bone,[3],0.11±0.02 %IA/g
same,Uptake in heart,[3],0.08±0.07 %IA/g
same,Uptake in kidney,[3],9±3 %IA/g
same,Uptake in liver,[3],0.24±0.02 %IA/g
same,Uptake in lung,[3],0.21±0.07 %IA/g
same,Uptake in muscle,[3],0.07±0.02 %IA/g
same,Uptake in pancreas,[3],0.09±0.04 %IA/g
same,Uptake in salivary gland,[3],0.12±0.04 %IA/g
same,Uptake in spleen,[3],0.5±0.3 %IA/g
same,Uptake in tumor,[3],12±3 %IA/g
same,"Absorbed dose, adrenals",[4],7.64E-03 mGy/MBq
same,"Absorbed dose, brain",[4],4.32E-04 mGy/MBq
same,"Absorbed dose, gallbladder wall",[4],8.76E-04 mGy/MBq
same,"Absorbed dose, heart wall",[4],1.00E-03 mGy/MBq
same,"Absorbed dose, kidneys",[4],1.11E-01 mGy/MBq
same,"Absorbed dose, liver",[4],1.37E-03 mGy/MBq
same,"Absorbed dose, lungs",[4],1.81E-03 mGy/MBq
same,"Absorbed dose, osteogenic cells",[4],8.30E-04 mGy/MBq
same,"Absorbed dose, pancreas",[4],7.60E-04 mGy/MBq
same,"Absorbed dose, prostate",[4],1.17E-03 mGy/MBq
same,"Absorbed dose, red marrow",[4],7.59E-04 mGy/MBq
same,"Absorbed dose, small intestine",[4],1.72E-03 mGy/MBq
same,"Absorbed dose, spleen",[4],4.42E-03 mGy/MBq
same,"Absorbed dose, stomach wall",[4],1.69E-03 mGy/MBq
same,"Absorbed dose, testes",[4],1.05E-03 mGy/MBq
same,"Absorbed dose, thymus",[4],7.19E-04 mGy/MBq
same,"Absorbed dose, thyroid",[4],7.11E-04 mGy/MBq
same,"Absorbed dose, total body",[4],1.70E-03 mGy/MBq
O=C([O-])CN1CCN(CC(=O)[O-])CCN(CC(=O)NC[C@H]2CC[C@H](C(=O)N[C@@H](Cc3ccc4ccccc4c3)C(=O)NCCCC[C@H](NC(=O)N[C@@H](CCC(=O)O)C(=O)O)C(=O)O)CC2)CCN(CC(=O)[O-])CC1.[Lu+3] [^natLu-PSMA-617],IC50,[5],61 nM and 60 nM
O=C(O)CC[C@H](NC(=O)N[C@@H](CCCCNC(=O)[C@H](Cc1ccc2ccccc2c1)NC(=O)[C@H]1CC[C@H](CNC(=O)CN2CCN(CC(=O)O)CCN(CC(=O)O)CCN(CC(=O)O)CC2)CC1)C(=O)O)C(=O)O [PSMA-617],internalized fraction of the total cell-associated activity,[6],10.0 ± 2.9%
